Measurements reported in patent US11878009B2, “Anticancer combination of chidamide and celecoxib salts” (Great Novel Therapeutics Biotech & Medicals Corporation, priority 2019, dated 2024).

Key:
[1] = Saturation solubility in ddH2O; assay type: physicochemical; details: for Saturation & Solubility: ddH2O, 25° C., 100 rpm, 90 minutes, triplicates, mean ± SD; for water solubility (in words): saturation solubility study
Protocol: Determination of Saturation Solubility of Chidamide-HCl, Chidamide-H2SO4, and Celecoxib-Na Salts. Sample of 5 mg of chidamide-HCl, chidamide-H2SO4, or celecoxib-Na salts was added to 5 ml volumetric flasks containing ddH2O and shook at 100 rpm in an incubator at 25° C. for 90 minutes. The resulting suspension was filtered through a 0.22 μm filter. The concentrations of chidamide-HCl, chidamide-H2SO4, and celecoxib-Na salts were determined spectrophotometrically at 256 nm, 256 nm, and 253 nm, respectively. The saturation solubility of each sample was determined in triplicates and the mean value and standard deviation were reported. Preparation of standard curves is described as below.

[2] = low solubility and high permeability; cited from earlier work

| SMILES | Saturation & Solubility [1] | water solubility (in words) [1] | BCS class [2] |
| --- | --- | --- | --- |
| Cc1ccc(-c2cc(C(F)(F)F)nn2-c2ccc(S(N)(=O)=O)cc2)cc1 [Celecoxib-API, 4-[5-(4-Methylphenyl)-3-(trifluoromethyl)pyrazol-1-yl]benzenesulfonamide, reference compound] | BDL | water-insoluble | class II |
| Nc1cc(F)ccc1NC(=O)c1ccc(CNC(=O)/C=C/c2cccnc2)cc1 [Chidamide-API, 4-(((E)-3-(pyridin-3-yl)acrylamido)methyl)-N-(2-amino-4-fluorophenyl)benzamide, reference compound] | BDL | water-insoluble |  |
